Test results published in ChEMBL document CHEMBL1201862, “PubChem BioAssay data set” (2004).
The source made the active and inactive calls.

Legend:
[1] = molecular target: T1, CAAX prenyl protease 2 (Saccharomyces cerevisiae S288c, UniProt Q03530); type: biochemical
T1 sequence (Q03530 whole entry): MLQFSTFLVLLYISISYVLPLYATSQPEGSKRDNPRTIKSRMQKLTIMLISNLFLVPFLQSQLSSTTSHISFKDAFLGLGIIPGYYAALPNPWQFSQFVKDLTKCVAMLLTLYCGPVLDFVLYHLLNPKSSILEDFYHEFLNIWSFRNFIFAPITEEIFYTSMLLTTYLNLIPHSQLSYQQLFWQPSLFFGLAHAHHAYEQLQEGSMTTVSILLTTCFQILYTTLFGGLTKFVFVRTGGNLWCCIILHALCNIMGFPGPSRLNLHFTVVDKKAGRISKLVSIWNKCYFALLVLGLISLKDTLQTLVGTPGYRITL

[2] = tested on: HEK293; test: membrane integrity loss in HEK cells – cell-based, fluorescence, cytotoxicity control for IDE activator project, dose response (AID 588440); type: functional; conditions: Homo sapiens;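 note: cytotoxicity by LDH release measuring loss of membrane integrity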
[3] = molecular target: T2, Rac GTPase-activating protein 1 (Homo sapiens, UniProt Q9H0H5); test: blockers of MgcRacGAP-driven Rac1 GTP hydrolysis – biochemical, ADP Hunter fluorescence, primary and confirmatory, confirmation (AID 624330); type: functional
T2 sequence (Q9H0H5 whole entry): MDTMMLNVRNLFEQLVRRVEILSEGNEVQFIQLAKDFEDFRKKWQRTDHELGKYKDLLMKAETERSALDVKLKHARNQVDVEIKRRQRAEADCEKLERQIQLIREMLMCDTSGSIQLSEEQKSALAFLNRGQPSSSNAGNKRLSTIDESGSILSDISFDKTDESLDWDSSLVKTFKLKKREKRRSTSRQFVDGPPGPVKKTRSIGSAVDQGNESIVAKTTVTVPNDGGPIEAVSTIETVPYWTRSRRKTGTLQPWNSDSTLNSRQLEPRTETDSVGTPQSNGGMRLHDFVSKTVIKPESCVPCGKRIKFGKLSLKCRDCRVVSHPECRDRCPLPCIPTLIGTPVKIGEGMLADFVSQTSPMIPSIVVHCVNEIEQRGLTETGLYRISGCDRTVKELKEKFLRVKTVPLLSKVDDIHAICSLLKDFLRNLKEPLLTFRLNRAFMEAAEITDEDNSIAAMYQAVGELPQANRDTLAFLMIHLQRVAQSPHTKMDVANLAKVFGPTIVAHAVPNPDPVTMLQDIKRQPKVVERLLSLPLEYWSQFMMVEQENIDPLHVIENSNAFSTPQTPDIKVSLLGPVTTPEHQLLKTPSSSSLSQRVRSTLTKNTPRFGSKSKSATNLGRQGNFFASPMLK

[4] = molecular target: T3, ORF 73 (Human herpesvirus 8, UniProt O40947); test: KSHV LANA DNA-binding disruption – biochemical, fluorescence polarization, cherry-picked samples, dose response (AID 504725); design: species or system Human gammaherpesvirus 8;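 note: fluorescence polarization of a labeled DNA duplex reporting LANA DNA binding; potency is for inhibitors that block LANA binding to the DNA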
T3 sequence (O40947 whole entry): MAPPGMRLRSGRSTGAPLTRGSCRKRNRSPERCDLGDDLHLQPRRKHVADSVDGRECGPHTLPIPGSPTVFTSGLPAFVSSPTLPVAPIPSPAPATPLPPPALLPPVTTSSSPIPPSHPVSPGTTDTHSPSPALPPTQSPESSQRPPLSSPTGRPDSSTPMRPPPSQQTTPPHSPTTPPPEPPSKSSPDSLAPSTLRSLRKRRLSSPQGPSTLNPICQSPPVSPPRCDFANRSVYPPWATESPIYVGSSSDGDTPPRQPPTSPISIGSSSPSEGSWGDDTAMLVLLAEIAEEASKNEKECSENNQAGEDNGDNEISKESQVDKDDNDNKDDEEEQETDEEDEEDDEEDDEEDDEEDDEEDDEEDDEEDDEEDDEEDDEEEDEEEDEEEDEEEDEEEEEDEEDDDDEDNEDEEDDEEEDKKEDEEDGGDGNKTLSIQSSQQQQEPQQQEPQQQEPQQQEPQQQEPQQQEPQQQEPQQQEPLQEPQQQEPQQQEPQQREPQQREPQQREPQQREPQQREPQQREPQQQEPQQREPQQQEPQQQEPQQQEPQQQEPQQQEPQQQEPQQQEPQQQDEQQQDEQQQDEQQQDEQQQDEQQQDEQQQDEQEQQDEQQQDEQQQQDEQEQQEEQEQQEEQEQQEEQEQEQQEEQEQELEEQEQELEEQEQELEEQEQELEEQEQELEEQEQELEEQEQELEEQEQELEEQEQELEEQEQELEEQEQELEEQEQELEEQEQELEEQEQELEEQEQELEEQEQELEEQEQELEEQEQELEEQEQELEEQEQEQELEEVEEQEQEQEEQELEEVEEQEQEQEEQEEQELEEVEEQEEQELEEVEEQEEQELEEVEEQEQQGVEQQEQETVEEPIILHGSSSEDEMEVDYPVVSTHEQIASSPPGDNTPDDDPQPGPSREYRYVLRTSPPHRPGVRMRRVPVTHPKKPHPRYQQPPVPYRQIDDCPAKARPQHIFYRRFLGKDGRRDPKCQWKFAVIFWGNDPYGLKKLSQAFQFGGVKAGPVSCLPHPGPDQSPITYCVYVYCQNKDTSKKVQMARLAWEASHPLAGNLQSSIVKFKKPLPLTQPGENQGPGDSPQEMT

[5] = tested on: HEK293; test: optical interference in Abeta FP readout, dose response, artefact control for IDE activator project, biochemical, fluorescence polarization (AID 588442); type: functional, cell-based; conditions: Homo sapiens
[6] = molecular target: Nonstructural protein 1 (Influenza A virus, UniProt Q194T2); type: functional, Influenza A virus (A/California/07/2009(H1N1))
Sequence of Nonstructural protein 1 (Q194T2 whole entry): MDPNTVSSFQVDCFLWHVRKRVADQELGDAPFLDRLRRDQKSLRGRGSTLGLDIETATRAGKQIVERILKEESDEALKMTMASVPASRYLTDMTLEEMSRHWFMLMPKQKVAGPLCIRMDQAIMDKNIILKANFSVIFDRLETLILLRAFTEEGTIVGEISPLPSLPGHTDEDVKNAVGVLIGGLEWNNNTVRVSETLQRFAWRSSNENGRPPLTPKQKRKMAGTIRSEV

[7] = molecular target: T4, Insulin-degrading enzyme (Homo sapiens, UniProt P14735); test: recombinant IDE activation, cell-free – biochemical, fluorescence polarization, counter-screen for IDE activator project, dose response (AID 588681)
T4 sequence (P14735 whole entry): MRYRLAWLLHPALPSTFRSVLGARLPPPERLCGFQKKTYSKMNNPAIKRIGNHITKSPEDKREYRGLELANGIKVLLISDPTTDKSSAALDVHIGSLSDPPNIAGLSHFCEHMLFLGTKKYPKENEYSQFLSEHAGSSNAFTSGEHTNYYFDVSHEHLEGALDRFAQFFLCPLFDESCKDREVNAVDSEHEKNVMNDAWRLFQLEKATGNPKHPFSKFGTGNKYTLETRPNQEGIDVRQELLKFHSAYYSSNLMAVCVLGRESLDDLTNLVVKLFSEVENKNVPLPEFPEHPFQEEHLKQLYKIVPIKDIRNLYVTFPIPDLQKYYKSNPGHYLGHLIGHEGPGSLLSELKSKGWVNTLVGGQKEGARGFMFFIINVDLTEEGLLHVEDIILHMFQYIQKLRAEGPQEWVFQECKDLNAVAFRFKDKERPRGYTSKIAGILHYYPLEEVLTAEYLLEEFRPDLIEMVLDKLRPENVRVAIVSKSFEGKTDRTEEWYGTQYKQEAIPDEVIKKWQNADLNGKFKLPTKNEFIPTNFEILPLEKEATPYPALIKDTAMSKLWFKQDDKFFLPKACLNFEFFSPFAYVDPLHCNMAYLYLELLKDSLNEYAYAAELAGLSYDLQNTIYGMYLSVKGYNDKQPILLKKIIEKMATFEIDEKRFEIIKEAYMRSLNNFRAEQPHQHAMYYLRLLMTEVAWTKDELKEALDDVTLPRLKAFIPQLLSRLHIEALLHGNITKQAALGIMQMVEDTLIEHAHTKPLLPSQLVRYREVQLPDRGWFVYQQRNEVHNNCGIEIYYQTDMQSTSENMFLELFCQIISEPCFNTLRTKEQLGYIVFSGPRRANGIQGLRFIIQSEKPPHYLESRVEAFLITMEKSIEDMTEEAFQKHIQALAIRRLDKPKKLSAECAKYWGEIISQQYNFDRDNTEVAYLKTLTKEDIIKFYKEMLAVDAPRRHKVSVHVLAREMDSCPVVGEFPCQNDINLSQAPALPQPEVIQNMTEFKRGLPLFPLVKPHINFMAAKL

[8] = viability loss in HeLa cells – cytotoxicity control for MgcRacGAP inhibitor project, dose response (AID 624300); type: functional
[9] = molecular target: T4, Insulin-degrading enzyme; test: cellular IDE activation of Abeta substrate cleavage – fluorescence polarization, HEK cells, dose response (AID 588439); type: functional, cell-based
[10] = tested on: HeLa; test: viability loss in HeLa cells – cell-based, 24 h, cherry-picked samples, cytotoxicity control, dose response (AID 504726); type: functional; conditions: Homo sapiens;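 note: potency for cytotoxicity as loss of luminescence signal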
[11] = molecular target: T5, Zinc finger protein mex-5 (Caenorhabditis elegans, UniProt Q9XUB2); test: potency of MEX-5 RNA-binding blockers – biochemical, C. elegans, fluorescence polarization, dose response (AID 1960)
T5 sequence (Q9XUB2 whole entry): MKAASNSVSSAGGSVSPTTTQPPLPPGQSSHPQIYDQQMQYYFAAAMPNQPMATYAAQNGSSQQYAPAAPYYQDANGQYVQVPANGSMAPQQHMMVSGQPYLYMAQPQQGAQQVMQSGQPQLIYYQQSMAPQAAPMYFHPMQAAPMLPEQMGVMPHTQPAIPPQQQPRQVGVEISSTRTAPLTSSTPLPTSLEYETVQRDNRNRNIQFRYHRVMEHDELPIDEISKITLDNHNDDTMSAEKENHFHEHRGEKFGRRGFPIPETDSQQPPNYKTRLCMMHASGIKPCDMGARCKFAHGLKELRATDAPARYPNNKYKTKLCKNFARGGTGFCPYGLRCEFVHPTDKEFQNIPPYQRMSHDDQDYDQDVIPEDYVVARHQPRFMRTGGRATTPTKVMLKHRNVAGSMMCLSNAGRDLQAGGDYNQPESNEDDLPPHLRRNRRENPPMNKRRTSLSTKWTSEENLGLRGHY

[12] = luciferase reporter signal suppression in cells – H4 neuroglioma cells, luminescence, dose response (AID 1990); type: functional, cell-based
[13] = HEK-293T cell viability reduction – luminescence, B-cell screen hits, cytotoxicity control for BCR NF-kB inhibitor project, dose response (AID 489021); type: functional, cell-based;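 note: HEK-293T cells carrying an NF-kB luciferase reporter; cells exposed to compound for about 14 hours before viability readout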
[14] = molecular target: T6, RNA-binding protein pos-1 (Caenorhabditis elegans, UniProt G5EF15); test: disruptors of C. elegans POS-1 RNA interaction – biochemical, fluorescence polarization, dose response (AID 1964);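 note: purified POS-1 fused to maltose binding protein made in E. coli; potency of compounds blocking POS-1 binding to fluorescent RNA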
T6 sequence (G5EF15 whole entry): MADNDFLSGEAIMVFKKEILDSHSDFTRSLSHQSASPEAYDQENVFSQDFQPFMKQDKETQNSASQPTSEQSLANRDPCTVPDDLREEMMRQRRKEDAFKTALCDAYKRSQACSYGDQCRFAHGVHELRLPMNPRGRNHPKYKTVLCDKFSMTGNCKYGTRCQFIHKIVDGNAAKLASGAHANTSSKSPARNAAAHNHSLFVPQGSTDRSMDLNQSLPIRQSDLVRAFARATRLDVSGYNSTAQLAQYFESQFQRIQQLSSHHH

[15] = alpha-synuclein stem-loop luciferase translation blockers – H4 neuroglioma cells, luminescence, confirmation (AID 1988); type: functional, cell-based
[16] = Luminescence Cell-Based Dose Response HTS to Identify Inhibitors of 5'UTR Stem-Loop Driven Prion Protein mRNA Translation in H4 Neuroglioblastoma Cells. [Related pubchem assays: 1827 (Project Summary), 1813 (Primary HTS)]; type: functional

CCCn1c(O)c(N=NC(=O)CNC(=O)Cc2ccc(OC)cc2)c2ccccc21
AC50 [1]: > 100 µM (inactive)

Nc1ccc2c3[nH]c4cc(N)ccc4cc-3nc2c1
IC50 [2]: > 89.2 µM (inactive)
IC50 [3]: 44.7 µM (active)
AC50 [4]: 0.758 µM (active)
EC50 [5]: > 54.7 µM (inactive)
IC50 [6]: 21.1 µM (active)
EC50 [7]: > 54.7 µM (inactive)
CC50 [8]: 8.81 µM (active)
EC50 [9]: > 54.7 µM (inactive)
AC50 [10]: 7.72 µM (active)

COc1cccc(/C=C2\SC(=S)N(CCCC(=O)NC3=NCCS3)C2=O)c1
EC50 [11]: > 300 µM (not active)
EC50 [12]: 11.8 µM (active)
IC50 [13]: > 80 µM (inactive)
EC50 [14]: > 300 µM (not active)
EC50 [15]: 13.2 µM (active)
EC50 [16]: 14 µM (active)
